A short description of data set [1]: refractive index (Na D-line) (dimensionless). The settings on record: 298.15 K; 101.33 kPa; Liquid; Standard Abbe refractometry.
The conditions of data set [2]: 298.15 K; 101.33 kPa; Liquid; Pycnometric method.

Numbers after ± are expanded uncertainties.

What is called refractive index is a measure of how strongly the sample bends light. What is called mass density is mass per unit of volume. For the molecule `CN1CCN(C)C1=O` [1,3-dimethyl-2-imidazolidinone], the refractive index in data set [1] is on record as 1.4712 ± 0.0008. For the same molecule, the mass density in data set [2] was 1052.25 ± 1.1 kg/m3.

The values are drawn from the NIST ThermoML archive (doi:10.1016/j.tca.2008.07.001).
